Results taken from article PMC11979947, “Modeling Krebs cycle from liver, heart and hepatoma mitochondria, supported Complex I as target for specific inhibition of cancer cell proliferation” (Frontiers in Oncology, 2025).
Read-outs that look alike come from different tables or passages of the source.

Legend:
HeLa cervix cancer cells = assay: MTT cell proliferation assay, HeLa; format: cell-based, human; conditions: read-out: IC50 on proliferation
Experimental: (§1) Human cervix cancer HeLa and SiHa, human prostate cancer PC3, human colon cancer colo-205, and rat heart myoblast H9c2 cells (CRL-1446, ATCC, Manassas, VA, USA) were cultured in DMEM medium, while human breast cancer MCF7 cells were cultivated in MEM medium. Human breast epithelial MCF-10A cells (CRL-10317, ATCC, Manassas, VA, USA) were cultivated in F-12/DMEM medium. All media were supplemented with 25 mM glucose, 10% fetal bovine serum (Biowest, Riverside, MO, USA) and 10,000 U streptomycin/penicillin/mL under an atmosphere of 5% CO2 and 95% air at 37°C until 80-90% confluence.
(§2) The cell lines (20 × 10^3 cells/well) were grown in 96-well plates containing Dulbecco’s Modified Eagle’s Medium (DMEM) (Sigma-Aldrich, St Louis, MO, USA) for 24 h. Afterward, the cells were exposed to rotenone (1 nM to 50 µM) or malonate (0.1µM to 100 mM) for 24 h. Drug effects on cell proliferation were determined by using the 3-(4,5-dimethyl-thiazol-2-yl)-2,5-diphenyltetrazolium bromide (MTT) (Sigma-Aldrich, St Louis, MO, USA) assay. Plates were incubated at 37°C for 3 h; after, the medium was discarded, and the formazan crystals were dissolved with 100 µL DMSO. After 5 min incubation at 37°C, the absorbance was measured at λ 595 nm ([34]).

[1] = system: MCF10A breast non-cancer cells; assay: MTT cell proliferation assay, MCF10A; format: cell-based, human; conditions: for IC50: read-out: IC50 on proliferation
Experimental: as §1, §2

MCF7 breast cancer cells = assay: MTT cell proliferation assay, MCF7; format: cell-based, human; conditions: read-out: IC50 on proliferation
Experimental: as §1, §2

[2] = system: PC3 prostate cancer cells; assay: MTT cell proliferation assay, PC3; format: cell-based, human; conditions: read-out: IC50 on proliferation
Experimental: as §1, §2

[3] = system: COLO-205 colon cancer cells; assay: MTT cell proliferation assay, COLO-205; format: cell-based, human; conditions: read-out: IC50 on proliferation
Experimental: as §1, §2

SiHa cervix cancer cells = assay: MTT cell proliferation assay, SiHa; format: cell-based; conditions: Homo sapiens, 24 h, read-out: IC50 on proliferation
Experimental: as §1, §2

[4] = system: H9c2 heart myoblast cells; assay: MTT cell proliferation assay, H9c2; format: cell-based, rat; conditions: read-out: IC50 on proliferation
Experimental: as §1, §2

| Compound | IC50 (HeLa cervix cancer cells; Homo sapiens, 24 h) [µM] | IC50 ([1]; Homo sapiens, MCF-10A, 24 h) [µM] | Effect on proliferation ([1]; MCF10A, 50 µM, 24 h of treatment) | IC50 (MCF7 breast cancer cells; Homo sapiens, MCF7, 24 h) [µM] | IC50 ([2]; Homo sapiens, 24 h) [µM] | IC50 ([3]; Homo sapiens, COLO 205, 24 h) [µM] | IC50 (SiHa cervix cancer cells) [µM] | IC50 ([4]; Rattus norvegicus, H9c2, 24 h) [µM] | IC50 (HeLa cervix cancer cells; 24 h treatment, MTT) [µM] | IC50 ([1]; MCF10A, 24 h treatment, MTT) [µM] | IC50 (MCF7 breast cancer cells; MCF7, 24 h treatment, MTT) [µM] | IC50 ([2]; PC3, 24 h treatment, MTT) [µM] | IC50 ([3]; COLO-205, 24 h treatment, MTT) [µM] | IC50 ([4]; H9c2, 24 h treatment, MTT) [µM] |
| --- | --- | --- | --- | --- | --- | --- | --- | --- | --- | --- | --- | --- | --- | --- |
| C=C(C)[C@H]1Cc2c(ccc3c2O[C@@H]2COc4cc(OC)c(OC)cc4[C@@H]2C3=O)O1 [Rotenone, rotenone] | 17 ± 5 | > 50 | not affected | 0.15 ± 0.09 | 13 ± 1 | 37 ± 9 | 18 ± 3 | 34 ± 10 |  |  |  |  |  |  |
| O=C(O)CC(=O)O [Malonate, malonate] |  |  |  |  |  |  |  |  | 27000 ± 5000 | 43000 ± 9000 | 41000 ± 1000 | 40000 ± 2000 | 32000 ± 3000 | 25000 ± 5000 |
